The values that follow come from patent US10301287B2, “Solid forms of cenicriviroc mesylate and processes of making solid forms of cenicriviroc mesylate” (Tobira Therapeutics, Inc., priority 2016, dated 2019).

Data set [1] can be described thus: Particle size according to USP <429> (laser light diffraction). The class given is physicochemical. As for the experimental part:
In some embodiments, the particle size and the particle size distribution (e.g., D90, D50, and D10) of a compound of the invention is determined by the laser light diffraction particle size distribution analysis. The particle size distribution is determined in accordance with the Fraunhofer light diffraction method. In this method, a coherent laser beam passes through the sample and the resulting diffraction pattern is focused on a multi-element detector. Since the diffraction pattern depends, among other parameters, on particle size, the particle size distribution can be calculated based on the measured diffraction pattern of the sample. In one embodiment, the particle size and the particle size distribution is measured according to U.S. Pharmacopeia (USP) <429>.
Particle Size: The particle size of the Micronized CVC mesylate Form A and the non-micronized CVC mesylate Form A were determined according to USP <429> as shown in Table 5.

Data set [2] in a line: Tapped bulk density, compressibility (Carr's) index and Hausner ratio. More on the design: Compressibility (Carr's) Index: scale not given here. Format: physicochemical. The settings on record: for Interpretation (flow): from average compressibility index / Hausner ratio, Tables 7 and 8. On the procedure:
Tapped Bulk Density: Tapped bulk density analysis was performed by pouring powder that had been sieved through a 1 mm Retsch stainless steel test sieve into a clean, dry pre-weighed 50 ml measuring cylinder. Powder was added to a total volume of 45-50 ml without compacting the sample. The mass and the initial volume (V0) were recorded. The sample was tapped using a Copley JV2000 tapped density tester using the following number of taps: 10, 490, 750 and sets of 1250 taps up to a total of 10,000 taps (Table 6). The volume was recorded after each set of taps and the sample was tapped until it reached constant volume (Vf). For these samples the 10,000 tap volume was used as Vf. Each sample was analysed in duplicate and the tapped density, compressibility index (Carr's index) and Hausner ratios were calculated using the formulae given below. The results from the duplicate analysis were averaged and the average result was used to assess the flow properties of the sample, using the parameters given in Table 7 (see “The Science of Dosage Form Design”, ME Aulton, 1988) and Table 8 (see USP method <1174>; see also, Carr, R. L. Evaluating Flow Properties of Solids. Chem Eng. 1965, 72, 163-168). Tapped Bulk Density=M/Vf. [formula] [formula]

Data set [3] is described as follows: Flow properties, Revolution Powder Analyser. The settings on record: for Avalanche Angle / Avalanche Energy / Avalanche Time / Break Energy / Rest Angle: drum rotation speed 0.3 rpm; for Interpretation (flow): from rest angle, Table 10. The class given is physicochemical. As for the experimental part:
Flow Properties: The flow properties of the samples were analysed using a Revolution Powder Analyser. Approximately 100 ml of the sample is placed in a sample drum which has two borosilicate glass sides. A motor turns two high precision silicone rollers, which in turn rotate the drum. A digital camera with the assistance of cold cathode backlight illumination takes images of the powder during the rotation process. Using a drum rotation speed of 0.3 rpm the time to avalanche, avalanche angle, avalanche energy, break energy and rest angle are measured. The software calculates these properties by analysing the images produced as the drum is rotated. The results of these properties can be used to assess the flow of the bulk powder. The interpretation of the rest angle (angle of repose) are given in Table 10 (see USP method <1174>; see also, Carr, R. L. Evaluating Flow Properties of Solids. Chem Eng. 1965, 72, 163-168).

Data set [4] in a line: BET surface area by multipoint nitrogen adsorption. The class given is physicochemical. On the procedure:
Samples were analysed for BET (Brunauer-Emmett-Teller) surface area by a multipoint Nitrogen adsorption method (volumetric technique) using a Micromeritics TriStar 3020 instrument. The sample degassing was undertaken using a Micromeritics FlowPrep 060 applying flowing argon of 99.995% purity at a flow rate of approximately 20 cc/min for two hours at 20° C. Samples were degassed in their respective analysis tubes and transferred directly to the TriStar II immediately after the degassing period.

The conditions of data set [5]: cited from earlier work.
Data set [6] is described as follows: Intrinsic dissolution of compressed disc, Sirius T3. Particulars: Britton-Robinson buffer, average pH 3.12 (Form A), room temperature, disc 7.07 mm^2. Format: physicochemical. As for the experimental part:
In one embodiment, the extrapolated intrinsic dissolution rate is measured using dissolution disc having 7.07 mm^2 which was compressed under high pressure, ca. 100 kg, using a constructed die. In one embodiment, a Sirius T3 was used as the dissolution apparatus containing 20 mL of test media with stirring speed of the paddle set to −30%. In some embodiments, the dissolution was measured at room temperature. In one embodiment, dissolution was measured over 1 pH sector by ultraviolet (UV) spectrometry. In one embodiment, the UV spectra of the dissolution solution was collected over time, for example every 30 seconds, and converted to concentration using the molar extinction coefficient (MEC) by UV-metric titration. In one embodiment, the intrinsic dissolution rate was calculated by dividing the extrapolated dissolution rate by the surface area of the dissolution disc. In one embodiment, the dissolution media was Britton-Robinson buffer solution. In one embodiment, the dissolution media was pH 3.1 Britton-Robinson buffer solution. In one embodiment, the dissolution media was pH 3.2 Britton-Robinson buffer solution. In another embodiment, the dissolution media was pH 4.7 Britton-Robinson buffer solution.
Intrinsic Dissolution: Appropriate weight of the pure test compound material were used to fill the cavity of the dissolution disc and compressed under high pressure, ca. 100 kg, using a constructed die. No additives were added, avoiding any external interference in the intrinsic dissolution profile. The resulting non-disintegrating disc was transferred to the dissolution apparatus, Sirius T3, containing 20 ml of the test media at room temperature. The stirring speed of the paddle was set to −30%. Dissolution was then measured over 1 pH sector. The solution spectra was collected every 30 seconds over 120 collection points and converted to concentration using the molar extinction coefficient (MEC) by UV-metric titration. Intrinsic dissolution rate was calculated by dividing the extrapolated dissolution rate by the surface area of the disk (7.07 mm^2). All analysis was performed in duplicate, with XRPD both prior to and post dissolution analysis, where possible.
Dissolution media, Britton-Robinson buffer solutions, were prepared by adding a specified volume of sodium hydroxide (0.2 M) to 200 ml of a solution of mixed acid, of 0.04 M with respect to phosphoric acid (2.72 ml/l), acetic acid (2.30 ml/l) and boric acid (2.476 g/l). The amount of sodium hydroxide used to prepare each buffer is outlined below:
pH 3.2 Britton-Robinson buffer: 38 ml of sodium hydroxide.

The mark [7] stands for this setting: listed as Form A Non-micronized.
[8] abbreviates: Rep. 1, M/Vf, Vf = volume after 10,000 taps.
[9] abbreviates: Rep. 2, M/Vf, Vf = volume after 10,000 taps.

Each structure is given as a SMILES string.

Take `CCCCOCCOc1ccc(-c2ccc3c(c2)/C=C(/C(=O)Nc2ccc([S+]([O-])Cc4cncn4CCC)cc2)CCCN3CC(C)C)cc1` (stereo not drawn) [Form A Non-micronised]: in data set [1] (setting [7]), the “Particle Size D10” value is reported as 4.725 μm, the “Particle Size D50” value is 13.803 μm and the “Particle Size D90” value is given as 65.910 μm. Also, in data set [2] (Mean of duplicate), the “Compressibility (Carr's) Index” value was 35.4, the “Hausner Ratio” value turned out to be 1.5 and the Tapped Bulk Density is 0.2 g/mL. Also, in data set [2] (Rep. 1), the “Compressibility (Carr's) Index” value is listed as 34.34 and the “Hausner Ratio” value is given as 1.52. The Tapped Bulk Density in data set [2] (setting [8]) is 0.22 g/mL. Further, in data set [2] (Rep. 2), the “Compressibility (Carr's) Index” value is 36.36 and the “Hausner Ratio” value was 1.57. Moreover, the Tapped Bulk Density in data set [2] (setting [9]) is 0.21 g/mL. The “Interpretation (flow)” value in data set [2] is recorded as “Very Poor”. In addition, in data set [3], the “Avalanche Angle” value is on record as 72.60 deg, the “Avalanche Energy” value turned out to be 41.58 kJ/kg, the “Avalanche Time” value is 6.5 s and the “Break Energy” value worked out at 138.38 kJ/kg. Besides, in data set [3], the “Rest Angle” value came out at 50.75 deg and the “Interpretation (flow)” value is on record as “Poor (Poor - must agitate, vibrate 46-55)”. For the same compound, in data set [4], the “BET constant, C” value was found to be 42.99 and the Surface area came to 3.0295 ± 0.0122 m^2/g.

As to `CCCCOCCOc1ccc(-c2ccc3c(c2)/C=C(/C(=O)Nc2ccc([S@@+]([O-])Cc4cncn4CCC)cc2)CCCN3CC(C)C)cc1` [Cenicriviroc, (S,E)-8-(4-(2-Butoxyethoxy)phenyl)-1-(2-methylpropyl)-N-(4-(((1-propyl-1H-imidazol-5-yl)methyl)sulfinyl)phenyl)-1,2,3,4-tetrahydrobenzo[b]azocine-5-carboxamide], the Water solubility result in data set [5] is “poorly water-soluble”.

Consider `CCCCOCCOc1ccc(-c2ccc3c(c2)/C=C(/C(=O)Nc2ccc([S+]([O-])Cc4cncn4CCC)cc2)CCCN3CC(C)C)cc1` (stereo not drawn) [Form C], for which, in data set [2] (Mean of duplicate), the “Compressibility (Carr's) Index” value came out at 6.0, the “Hausner Ratio” value turned out to be 1.1 and the Tapped Bulk Density was found to be 0.5 g/mL. Further, in data set [2] (Rep. 1), the “Compressibility (Carr's) Index” value is listed as 7.07 and the “Hausner Ratio” value is on record as 1.08. Also, the Tapped Bulk Density in data set [2] (setting [8]) was found to be 0.49 g/mL. In addition, in data set [2] (Rep. 2), the “Compressibility (Carr's) Index” value stood at 5.00 and the “Hausner Ratio” value was found to be 1.05. Moreover, in data set [2] (setting [9]), the Tapped Bulk Density was 0.48 g/mL. In data set [2], the “Interpretation (flow)” value is on record as “Excellent (5-15)”. Also, the “Density and flow compared with the Form A samples” value in data set [3] (Revolution Analyzer flowability measurements) was “more dense and flows better than the Form A samples”. For the same compound, in data set [3], the “Avalanche Angle” value is 51.55 deg, the “Avalanche Energy” value is 20.28 kJ/kg, the “Avalanche Time” value stood at 4.4 s and the “Break Energy” value is reported as 71.90 kJ/kg. Also, in data set [3], the “Rest Angle” value was found to be 41.30 deg and the “Interpretation (flow)” value is given as “Passable (Passable - may hang up 41-45)”. In addition, in data set [4], the “BET constant, C” value was 39.87 and the Surface area is reported as 2.3071 ± 0.0058 m^2/g. Besides, in data set [6] (Disc 1, 3.14 (Form C)), the “Extrapolated Dissolution Rate” value was 10.80 µg/min. Besides, the “Extrapolated Dissolution Rate” value in data set [6] (Disc 2, 3.15 (Form C)) was 11.38 µg/min.

For the compound `CCCCOCCOc1ccc(-c2ccc3c(c2)/C=C(/C(=O)Nc2ccc([S@@+]([O-])Cc4cncn4CCC)cc2)CCCN3CC(C)C)cc1` [Form A Micronised], in data set [1] (listed as Form A Micronized), the “Particle Size D10” value came out at 0.582 μm, the “Particle Size D50” value is 3.226 μm and the “Particle Size D90” value is 7.576 μm. Besides, in data set [2] (Mean of duplicate), the “Compressibility (Carr's) Index” value was 28.6, the “Hausner Ratio” value came to 1.4 and the Tapped Bulk Density worked out at 0.2 g/mL. In data set [2] (Rep. 1), the “Compressibility (Carr's) Index” value is reported as 27.55 and the “Hausner Ratio” value was determined as 1.42. Also, in data set [2] (setting [8]), the Tapped Bulk Density amounted to 0.16 g/mL. In data set [2] (Rep. 2), the “Compressibility (Carr's) Index” value amounted to 29.59 and the “Hausner Ratio” value came to 1.40. Further, in data set [2] (setting [9]), the Tapped Bulk Density came to 0.16 g/mL. Further, in data set [2], the “Interpretation (flow)” value was “Poor (23-35)”. In data set [3], the “Avalanche Angle” value was determined as 68.05 deg, the “Avalanche Energy” value stood at 32.98 kJ/kg, the “Avalanche Time” value is 7.4 s and the “Break Energy” value was 86.41 kJ/kg. Besides, in data set [3], the “Rest Angle” value was determined as 44.85 deg and the “Interpretation (flow)” value is recorded as “Passable (Passable - may hang up 41-45)”. In data set [4], the “BET constant, C” value is listed as 37.98 and the Surface area is given as 12.3614 ± 0.0440 m^2/g. Moreover, the “Extrapolated Dissolution Rate” value in data set [6] (Disc 1, 3.14 (Form C)) was 7.20 µg/min. The “Extrapolated Dissolution Rate” value in data set [6] (Disc 2, 3.15 (Form C)) is 9.43 µg/min.
